Test results from article PMC9877316, “Identification of a novel P2X7 antagonist using structure-based virtual screening” (Frontiers in Pharmacology, 2023).
“Also recorded” adds a separate entry of the source. Like-named read-outs stand apart in the source and are kept apart here.

Assays:
[1] = target: T1, rat P2X7 (Rattus norvegicus, UniProt Q64663); experiment: ATP/BzATP-induced YoPro-1 dye uptake assay, rat P2X7; format: cell-based; details: for inhibition at 30 µM: approx. % inhibition at 30 μM compound, 300 µM ATP, rat P2X7-GFP, read-out: % Inhibition at rP2X7; for antagonist activity at rat P2X7: 30 µM compound, 300 μM ATP
T1 construct: expressed in transfected cells; host or cells: HEK-293 cells stably expressing rat P2X7-GFP (patch clamp)
T1 sequence (Q64663 1-595): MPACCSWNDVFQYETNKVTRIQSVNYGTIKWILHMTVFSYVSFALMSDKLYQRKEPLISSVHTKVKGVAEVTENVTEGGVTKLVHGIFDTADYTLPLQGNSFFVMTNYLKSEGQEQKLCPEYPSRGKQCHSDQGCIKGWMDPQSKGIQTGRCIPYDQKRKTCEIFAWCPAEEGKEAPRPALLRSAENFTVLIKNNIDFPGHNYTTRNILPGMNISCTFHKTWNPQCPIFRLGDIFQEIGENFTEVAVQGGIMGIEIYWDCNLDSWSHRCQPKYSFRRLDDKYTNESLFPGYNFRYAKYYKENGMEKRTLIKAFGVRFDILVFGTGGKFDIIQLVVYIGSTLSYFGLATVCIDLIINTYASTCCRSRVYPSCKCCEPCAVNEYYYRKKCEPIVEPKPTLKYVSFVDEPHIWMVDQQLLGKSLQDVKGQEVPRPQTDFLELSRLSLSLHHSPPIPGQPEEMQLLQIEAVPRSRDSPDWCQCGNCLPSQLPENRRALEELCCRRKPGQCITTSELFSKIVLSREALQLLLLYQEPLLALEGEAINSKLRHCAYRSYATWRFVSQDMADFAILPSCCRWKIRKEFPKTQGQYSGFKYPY
Protocol: (§1) 1321N1 astrocytoma cells and HEK-293 cells were cultured (at 37°C, 5% CO2) in Dulbecco’s modified Eagle’s medium (DMEM/F-12 with Glutamax) supplemented with 10% foetal bovine serum (FBS) and 200 unit/ml of penicillin and streptomycin antibiotics (Fisher Scientific). For stable cell line generation, cells were transfected using FuGene HD Transfection Reagent (Promega) according to the manufacturer’s protocol with plasmids encoding either human P2X4 with a C-terminal (His)10 tag ([Young et al., 2008]), human P2X7 with a C-terminal EYMPME tag (kindly provided by R.A. North) or rat P2X7 C-terminally tagged with a GFP-(His)8 tag, generated by PCR amplification of the coding sequence for rat P2X7 from a pcDNA-based expression vector ([Young et al., 2007]), adding XhoI and EcoRI sites at the 5′- and 3′- ends respectively, followed by restriction digestion and ligation into a zebrafish P2X4-GFP expression vector based on pEGFP-C1 (kindly provided by Eric Gouaux; [Kawate and Gouaux, 2006]) to replace the zebrafish P2X4 coding region with rP2X7. Transfected clones were grown in DMEM/F-12 with Glutamax medium supplemented with G-418 (Geneticin®, Fisher Scientific), 600 μg/ml and 150 μg/ml during selection and maintenance respectively. […] HEK-293 cells stably expressing human P2X7 ([Adinolfi et al., 2010]) were a kind gift from Elena Adinolfi.
(§2) Cells were plated as for the calcium influx assay (Section 2.4). Culture medium was replaced with low divalent cation containing extracellular solution (ECS-LD; 147 mM NaCl, 10 mM HEPES, 13 mM Glucose, .2 mM CaCl2, 2 mM KCl. pH = 7.4 in MilliQ water) and 5 μM Yopro-1. […] The baseline was measured with a BMG Clariostar instrument for 5–10 cycles, followed by addition of ATP (or BzATP) and recording for at least 30 further cycles (approx. 1 min per data point). The collected responses were normalized to the first data-point recorded after ATP addition. The initial gradient of the dye uptake curve was used to calculate the response to ATP.
In order to confirm GP-25 as a competitive (orthosteric) antagonist, BzATP concentration-response curves (ranging between 300 μM and .03 µM) were constructed for rat P2X7-GFP in the YoPro-1 uptake assay in the presence of increasing concentrations of GP-25 (Figure 3A).

[2] = target: T2, human P2X7 (Homo sapiens, UniProt Q99572); experiment: ATP-induced YoPro-1 dye uptake assay, human P2X7; format: cell-based; details: for reduction in ATP-induced dye uptake at human P2X7: 30 µM compound, 300 μM ATP
T2 construct: expressed in transfected cells; host or cells: 1321N1 astrocytoma cells (compounds 1-17); HEK-293 cells stably expressing human P2X7 (gift of E. Adinolfi)
T2 sequence (Q99572 1-595): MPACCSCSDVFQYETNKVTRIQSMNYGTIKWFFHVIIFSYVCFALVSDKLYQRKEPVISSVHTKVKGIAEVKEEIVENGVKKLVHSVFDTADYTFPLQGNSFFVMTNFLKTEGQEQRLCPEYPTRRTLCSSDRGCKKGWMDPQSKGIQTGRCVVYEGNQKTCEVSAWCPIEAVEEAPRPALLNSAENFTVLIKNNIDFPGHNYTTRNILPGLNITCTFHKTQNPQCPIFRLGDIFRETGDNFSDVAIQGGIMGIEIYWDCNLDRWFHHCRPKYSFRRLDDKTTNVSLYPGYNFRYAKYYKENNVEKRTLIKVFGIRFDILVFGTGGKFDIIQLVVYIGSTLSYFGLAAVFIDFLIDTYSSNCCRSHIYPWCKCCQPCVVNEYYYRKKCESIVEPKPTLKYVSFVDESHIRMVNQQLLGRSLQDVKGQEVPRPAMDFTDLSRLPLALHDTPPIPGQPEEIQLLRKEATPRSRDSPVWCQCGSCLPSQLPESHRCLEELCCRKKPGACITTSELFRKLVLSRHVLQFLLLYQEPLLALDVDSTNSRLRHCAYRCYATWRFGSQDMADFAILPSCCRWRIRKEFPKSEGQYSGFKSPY
Protocol: as §1, §2
The antagonist activity of the 17 compounds (applied at 10 µM) was assayed initially on 1321N1 astrocytoma cells stably expressing human P2X4 receptors by measuring the ATP-induced (applied at 1.2 µM) increase in Fluo-4 fluorescence due to calcium influx via P2X4, using 2 µM BX430 as a positive control (Figure 1A). […] The ATP-induced rate of uptake of YoPro-1 dye was measured upon application of at 300 µM ATP, using .1 µM A740003 as a positive control (Figure 1B).
A small library of 16 commercially available compounds was selected according to the presence of the same scaffold as GP-25, (70% similarity, Tanimoto index) and/or presence of at least one functional group we hypothesized could contribute to GP-25 activity (e.g. carboxylic acid, halogen substituent to the aromatic ring, ester, etc.) (Compounds 18–33; Table 1). […] Although the number of compounds tested was limited by their availability via a commercial source, the numerous ‘hits’ allowed for a basic structure-relationship (SAR) analysis.

[3] = Solubility observations; format: physicochemical
[4] = P2X7, approx. % inhibition at 30 μM compound, 300 µM ATP, YoPro-1 uptake, 1321N1 (1-17) or HEK (18-33) cells, read-out: % Inhibition at hP2X7
[5] = P2X7, 30 µM compound, 300 µM ATP, YoPro-1, read-out: inhibition of response at human P2X7
[6] = agonist concentration-response, YoPro-1 uptake

Row | Compound | inhibition at 30 µM ([1]; YoPro-1 uptake) [%] | inhibition at 30 µM [2, 4] [%] | further results
1 | COC(=O)C1=C(C)NC2=C(C(=O)c3ccccc32)C1c1cc(OC)c(OC)c(OC)c1 (stereo not drawn) [Compound 31] | < 10 | 29 | 
2 | O=C1NC(=O)C(CCc2ccncc2)(c2ccccc2)C(=O)N1 [Compound 8] |  | < 0 | 
3 | CCSc1nnc2c(n1)OC(c1cc(Br)ccc1OCC(=O)O)Nc1ccccc1-2 (stereo not drawn) [Compound 29] | < 0 | 20 | 
4 | O=C(O)c1ccccc1NS(=O)(=O)c1ccc2c(c1)C(=O)c1ccccc1C2=O [Compound 2] |  | 38 | 
5 | CC1(C)CC(=O)C2=C(C1)NC1=C(C(=O)CC(C)(C)C1)C2c1ccccc1OCC(=O)O [Compound 18] | < 0 | < 0 | inhibition at 30 µM [2, 5]: ≤ 25%
6 | CCOC(=O)C1=C(C)NC2=C(C(=O)c3ccccc32)C1c1cc(Br)ccc1OCC (stereo not drawn) [Compound 19] | 13 | < 0 | reduction in ATP-induced dye uptake at human P2X7 [2]: completely abolished the activity
7 | CC(=O)C1=C(C)NC(=S)NC1c1cc(Br)ccc1OCC(=O)O (stereo not drawn) [Compound 33] | 16 | 18 | 
8 | O=C(Nc1cc(S(=O)(=O)O)cc2cc(S(=O)(=O)O)cc(O)c12)c1ccccc1 [Compound 1] |  | 41 | 
9 | CCOC(=O)CN1C(=O)S/C(=C/c2ccc(-c3ccc(C(=O)O)c(Cl)c3)o2)C1=O [Compound 10] |  |  | % Inhibition at hP2X7 ([2]; approx. % inhibition at 30 μM compound, 300 µM ATP, YoPro-1 uptake, 1321N1 (1-17) or HEK (18-33) cells): — (for compound displaying increased responses vs. control)
10 | COc1ccc(C2C3=C(CCCC3=O)N(CC(=O)O)C3=C2C(=O)CCC3)cc1 [Compound 14] |  | < 0 | inhibition at 30 µM [2, 5]: ≤ 25%
11 | Nc1ncnc2c1ncn2[C@@H]1O[C@H](COP(=O)(O)OP(=O)(O)OP(=O)(O)O)[C@@H](O)[C@H]1O [ATP, reference compound] |  |  | EC50 [1, 6]: 138 µM; EC50 [2, 6]: 184 µM
12 | CCSc1nnc(NC(=O)CSc2nnc3c4ccccc4n(C)c3n2)s1 [Compound 7] |  |  | solubility [3]: very low solubility
13 | Cc1ccc(N2C(S)=C(C#N)C(=O)NC2c2cccs2)cc1 (stereo not drawn) [Compound 5] |  | < 0 | 
14 | C=CCN1C(=O)N/C(=C/c2ccc(-c3ccc(C(=O)O)cc3C)o2)C1=O [Compound 11] |  | 25 | 
15 | COC(=O)C1=C(C)NC2=C(C(=O)c3ccccc32)C1c1ccc(-c2ccccc2[N+](=O)[O-])o1 (stereo not drawn) [Compound 23] | < 0 | 30 | reduction in ATP-induced dye uptake at human P2X7 [2]: statistically significant reduction
16 | COC(=O)C1=C(C)NC2=C(C(=O)c3ccccc32)C1c1ccc(-c2cc([N+](=O)[O-])ccc2Cl)o1 (stereo not drawn) [Compound 22] | < 0 | 69 | antagonist activity at rat P2X7 [1]: no activity; reduction in ATP-induced dye uptake at human P2X7 [2]: statistically significant reduction; solubility ([3]; listed as GP-50): less soluble than GP-47 or GP-25; also recorded: low solubility

Row | Compound | inhibition at 30 µM ([1]; YoPro-1 uptake) [%] | inhibition at 30 µM [2, 4] [%] | further results
17 | CCOC(=O)C1=C(C)NC2=C(C(=O)c3ccccc32)C1c1cc(Br)c(OCc2ccc(F)cc2)c(OC)c1 (stereo not drawn) [Compound 24] | 16 | 12 | 
18 | CC1(C)CC(=O)C2=C(C1)N(CC(=O)O)C1=C(C(=O)CC(C)(C)C1)C2c1ccc(OCc2ccccc2)cc1 [Compound 13] |  | 29 | inhibition at 30 µM [2, 5]: ≤ 25%
19 | NC(=O)CN1C(=O)C(O)(CC(=O)c2cccc(N)c2)c2ccccc21 (stereo not drawn) [Compound 12] |  | 12 | 
20 | CC1(C)CC(=O)C2=C(C1)NC1=C(C(=O)c3ccccc31)C2c1cccc(O)c1 (stereo not drawn) [Compound 30] | < 0 | 27 | 
21 | O=C(O)COc1ccc(Cl)cc1C1C2=C(CCCC2=O)NC2=C1C(=O)CCC2 [Compound 27] | < 0 | 16 | inhibition at 30 µM [2, 5]: ≤ 25%
22 | Cc1ccc(C(=O)C2=C(O)C(=O)N(CC3CCCO3)C2c2cccc(Oc3ccccc3)c2)o1 (stereo not drawn) [Compound 4] |  | < 10 | 
23 | CCOC(=O)C1=C(C)N(C)C2=C(C(=O)c3ccccc32)C1c1cc(OC)c(OC)c(OC)c1 (stereo not drawn) [Compound 32] | 19 | 55 | antagonist activity at rat P2X7 [1]: no activity; reduction in ATP-induced dye uptake at human P2X7 [2]: statistically significant reduction
24 | O=C(O)CSc1nc(SCC(=O)O)c2c3c(sc2n1)CCCC3 [Compound 16] |  | < 10 | 
25 | Nc1nc(SCC(=O)NCCO)nc2sc3c(c12)CCCC3 [Compound 3] |  | < 0 | 
26 | O=C(O)COc1ccc(Br)cc1C1C2=C(CCCC2=O)NC2=C1C(=O)CCC2 [Compound 26] | < 0 | 22 | inhibition at 30 µM [2, 5]: ≤ 25%
27 | CN1C2=C(C(=O)CCC2)C(c2cc(Cl)ccc2OCC(=O)O)C2=C1CCCC2=O [Compound 25] | < 0 | 20 | inhibition at 30 µM [2, 5]: ≤ 25%
28 | O=C(O)CCCC(=O)Nc1ccc(CN2CCOCC2)cc1 [Compound 15] |  | 11 | 
29 | CC(=O)c1ccc(N/N=C(\C#N)C(=O)NCc2ccccc2)cc1 [Compound 6] |  | < 10 | 
30 | CC1(C)CC(=O)C2=C(C1)NC1=C(C(=O)c3ccccc31)C2c1cccnc1 (stereo not drawn) [Compound 28] | < 0 | 32 | reduction in ATP-induced dye uptake at human P2X7 [2]: statistically significant reduction
31 | O=C(NNC(=S)CC(=O)c1cccs1)c1ccc(O)cc1 [Compound 17] |  | < 10 | 
